Active and inactive are the calls of the source.
How the values were obtained:
[1] = target: FAD-linked sulfhydryl oxidase ALR (Homo sapiens, UniProt P55789); test: inhibitors of human ALR sulfhydryl oxidase, dose response, biochemical, H2O2 detection, luminescence, cherry-pick (AID 493248)
BJ [2] = test: cytotoxicity toward BJ-TERT fibroblasts, dose response, cell-based, RAS-independent, luminescence (AID 1933); format: functional; conditions: Homo sapiens
BJ [3] = test: cells; format: functional, cell-based; conditions: Homo sapiens
BJ [4] = test: cytotoxicity toward BJ-TERT-LT-ST fibroblasts, dose response, cell-based, RAS-independent, luminescence (AID 1935); format: functional; conditions: Homo sapiens;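 note: BJ fibroblasts immortalized with TERT plus LT and ST oncogenes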
[5] = cytotoxicity toward DRD oncogenic fibroblasts, dose response, cell-based, non-viral oncogenic, luminescence (AID 1934); format: functional; conditions: Homo sapiens
[6] = target: T1, Heat shock factor protein 1 (Mus musculus, UniProt P38532); test: inhibition of MG132-induced HSE-luciferase signal, confirmation, cell-based, NIH3T3, luminescence, dose retest (AID 2382); format: functional;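 note: NIH3T3 fibroblasts with HSF1-driven luciferase reporter stressed by proteasome inhibitor MG132; luminescence from HSF1-driven luciferase expression after 8 hours of MG132 stress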
T1 sequence (P38532 whole entry): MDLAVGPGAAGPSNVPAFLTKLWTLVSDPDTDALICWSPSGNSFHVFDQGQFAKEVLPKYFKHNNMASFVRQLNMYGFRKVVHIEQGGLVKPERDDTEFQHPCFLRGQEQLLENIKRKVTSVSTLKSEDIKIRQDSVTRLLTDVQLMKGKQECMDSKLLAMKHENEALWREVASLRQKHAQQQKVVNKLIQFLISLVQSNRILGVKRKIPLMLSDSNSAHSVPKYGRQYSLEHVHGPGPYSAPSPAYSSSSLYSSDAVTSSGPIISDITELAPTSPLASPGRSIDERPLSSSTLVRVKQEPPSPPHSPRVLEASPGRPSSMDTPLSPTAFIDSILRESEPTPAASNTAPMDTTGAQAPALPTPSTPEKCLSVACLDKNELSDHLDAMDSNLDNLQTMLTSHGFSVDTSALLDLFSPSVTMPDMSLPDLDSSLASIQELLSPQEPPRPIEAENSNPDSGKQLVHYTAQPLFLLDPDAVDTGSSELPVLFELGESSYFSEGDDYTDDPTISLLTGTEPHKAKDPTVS

[7] = Luminescence Cell-Based Dose Retest to Confirm Inhibitors of Cancer Stem Cells. [Related pubchem assays (depositor defined):AID2717, AID2721]; format: functional; conditions: Homo sapiens
[8] = HEp-2 cell cytotoxicity, dose response, cytotoxicity control for RSV inhibitor project, HTS (AID 2410); format: functional; conditions: human respiratory syncytial virus
Large T antigen = Large T antigen (Simian virus 40, UniProt P03070); format: functional, Betapolyomavirus macacae;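 note: Confirmatory-stage PubChem screen for compounds that inhibit SV40 T antigen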
Cytochrome P450 2C19 = Cytochrome P450 2C19 (Homo sapiens, UniProt P33261); test: Cytochrome panel assay with activity outcomes. Panel member name: p450-cyp2c19 Compounds with AC50 equal or less than 10 uM are considered active; format: functional; conditions: read-out: AC50
Cytochrome P450 2D6 = Cytochrome P450 2D6 (Homo sapiens, UniProt P10635);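 note: CYP2D6 member of a cytochrome P450 panel assay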
[9] = inhibitors of intracellular T. cruzi replication, confirmation, NIH3T3 host cells, beta-gal luminescence (AID 2044); format: functional, cell-based;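 note: intracellular parasites grown in NIH/3T3 mouse fibroblasts as host cells; luminescent beta-galactosidase reporter signal from transgenic T. cruzi replicating inside host cells; inhibitors lower the luminescence signal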
[10] = cytotoxicity toward NIH3T3 fibroblasts, dose response, counter-screen, cell-based, ATP luminescence, mouse fibroblasts (AID 2010); format: functional;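 note: cells exposed to compound for about 90 hours before reading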
Cytochrome P450 1A2 = target: T2, Cytochrome P450 1A2 (Homo sapiens, UniProt P05177);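 note: PubChem cytochrome P450 panel assay, CYP1A2 panel member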
T2 sequence (P05177 whole entry): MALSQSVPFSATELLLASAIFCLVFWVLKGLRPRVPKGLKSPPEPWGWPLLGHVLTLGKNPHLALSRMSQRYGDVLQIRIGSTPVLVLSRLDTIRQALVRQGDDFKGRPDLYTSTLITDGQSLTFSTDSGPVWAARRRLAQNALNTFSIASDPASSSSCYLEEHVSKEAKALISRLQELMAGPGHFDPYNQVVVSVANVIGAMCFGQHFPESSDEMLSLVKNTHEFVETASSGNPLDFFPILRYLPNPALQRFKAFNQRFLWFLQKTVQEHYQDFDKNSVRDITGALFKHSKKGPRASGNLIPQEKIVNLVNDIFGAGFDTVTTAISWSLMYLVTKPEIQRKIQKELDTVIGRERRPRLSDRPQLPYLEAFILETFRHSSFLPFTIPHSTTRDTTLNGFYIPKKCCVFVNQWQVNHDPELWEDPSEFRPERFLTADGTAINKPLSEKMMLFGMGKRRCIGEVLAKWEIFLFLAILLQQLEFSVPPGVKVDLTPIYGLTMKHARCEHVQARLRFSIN

FAD-linked sulfhydryl oxidase ALR, sequence (P55789 whole entry): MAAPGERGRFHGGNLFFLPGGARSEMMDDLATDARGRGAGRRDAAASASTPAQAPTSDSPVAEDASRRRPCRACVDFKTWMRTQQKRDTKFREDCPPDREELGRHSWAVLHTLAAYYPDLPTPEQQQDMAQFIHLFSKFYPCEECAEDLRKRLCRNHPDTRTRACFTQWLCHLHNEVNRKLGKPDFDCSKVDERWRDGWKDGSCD
Large T antigen, sequence (P03070 whole entry): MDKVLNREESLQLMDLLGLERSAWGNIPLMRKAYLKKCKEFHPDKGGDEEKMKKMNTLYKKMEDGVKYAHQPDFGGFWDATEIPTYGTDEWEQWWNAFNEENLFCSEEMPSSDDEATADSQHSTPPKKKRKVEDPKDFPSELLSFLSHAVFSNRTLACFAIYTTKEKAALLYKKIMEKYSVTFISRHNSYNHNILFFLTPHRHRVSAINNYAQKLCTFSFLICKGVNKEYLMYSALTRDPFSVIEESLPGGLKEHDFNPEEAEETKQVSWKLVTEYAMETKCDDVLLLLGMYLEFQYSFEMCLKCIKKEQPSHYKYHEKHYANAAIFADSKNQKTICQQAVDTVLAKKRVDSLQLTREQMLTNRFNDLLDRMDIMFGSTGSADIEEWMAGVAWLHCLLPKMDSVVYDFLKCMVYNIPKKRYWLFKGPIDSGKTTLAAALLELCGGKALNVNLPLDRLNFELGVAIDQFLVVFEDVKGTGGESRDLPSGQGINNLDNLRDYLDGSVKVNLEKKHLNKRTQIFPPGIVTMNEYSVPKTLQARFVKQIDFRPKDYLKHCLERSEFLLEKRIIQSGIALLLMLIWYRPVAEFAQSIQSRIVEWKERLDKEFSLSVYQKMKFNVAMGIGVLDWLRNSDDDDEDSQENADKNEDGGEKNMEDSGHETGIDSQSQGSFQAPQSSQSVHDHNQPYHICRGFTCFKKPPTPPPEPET
Cytochrome P450 2D6, sequence (P10635 whole entry): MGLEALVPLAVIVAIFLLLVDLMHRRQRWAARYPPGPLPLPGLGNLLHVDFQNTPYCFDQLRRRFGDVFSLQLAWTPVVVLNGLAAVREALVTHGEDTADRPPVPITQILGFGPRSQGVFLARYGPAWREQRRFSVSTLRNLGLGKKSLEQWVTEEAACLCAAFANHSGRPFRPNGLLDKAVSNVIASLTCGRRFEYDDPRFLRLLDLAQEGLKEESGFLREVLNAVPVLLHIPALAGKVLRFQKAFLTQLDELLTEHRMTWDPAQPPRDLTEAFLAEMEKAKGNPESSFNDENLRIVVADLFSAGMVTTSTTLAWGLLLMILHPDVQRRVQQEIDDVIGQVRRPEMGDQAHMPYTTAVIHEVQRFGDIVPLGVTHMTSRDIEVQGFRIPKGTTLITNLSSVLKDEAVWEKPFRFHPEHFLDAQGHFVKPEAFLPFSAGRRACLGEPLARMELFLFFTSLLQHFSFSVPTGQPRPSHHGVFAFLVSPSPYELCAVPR
Cytochrome P450 2C19, sequence (P33261 whole entry): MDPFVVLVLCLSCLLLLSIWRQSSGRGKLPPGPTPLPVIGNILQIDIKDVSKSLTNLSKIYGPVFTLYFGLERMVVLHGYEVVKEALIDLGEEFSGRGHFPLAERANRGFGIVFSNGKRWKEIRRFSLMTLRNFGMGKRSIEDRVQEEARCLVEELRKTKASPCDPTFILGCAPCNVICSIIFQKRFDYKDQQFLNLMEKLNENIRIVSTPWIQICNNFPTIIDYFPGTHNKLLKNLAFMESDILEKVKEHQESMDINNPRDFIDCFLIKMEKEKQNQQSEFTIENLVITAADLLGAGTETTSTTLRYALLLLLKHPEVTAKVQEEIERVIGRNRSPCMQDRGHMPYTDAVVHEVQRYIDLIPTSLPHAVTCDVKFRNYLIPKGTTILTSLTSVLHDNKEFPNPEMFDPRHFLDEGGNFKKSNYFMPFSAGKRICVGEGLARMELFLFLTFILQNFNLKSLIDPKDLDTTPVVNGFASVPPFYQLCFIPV

O=C(O)c1ccccc1C(=O)Nc1ccc(Nc2ccc([N+](=O)[O-])cc2[N+](=O)[O-])cc1
AC50 [1]: 3.88 µM (active)

Cc1ccc2nc(O)c(CN(c3cccc(C)c3C)S(=O)(=O)c3ccccc3)cc2c1
EC50 (BJ [2]): 78.2 µM (active) | EC50 (BJ [3]): 46.6 µM (active) | EC50 (BJ [4]): > 150 µM (not active) | EC50 [5]: 69.9 µM (active)

COc1ccc(NC(S)=Nc2ccc(Oc3ccccc3)cc2)cc1
EC50 [6]: > 195 µM (not active)

C[C@@H]1CCC(=O)N(CC[C@H](Sc2ccc(Br)cc2)c2ccccc2)CC1
AC50 [7]: 5.03 µM (active)

O=C(Nc1ccc(Nc2ccccc2)cc1)c1cccc(F)c1
AC50 [7]: 3.9 µM (active)

COCCCn1c2nc3ccccc3nc2c2c(=O)n(Cc3ccc(Cl)cc3)cnc21
CC50 [8]: > 50 µM (active)

Cc1cc(C)n(CCc2nc(-c3ccco3)cs2)n1
IC50 (Large T antigen): 65.6 µM (active) | AC50 [1]: 4.56 µM (active)

COc1ccc(CCNC(=O)CN2CCN(Cc3ccccc3F)C2=O)cc1OC
EC50 [6]: > 195 µM (not active)

NC1=NC(c2c[nH]nc2-c2cccc(F)c2)n2c(nc3ccccc32)N1 (stereo not given)
EC50 [6]: 27.5 µM (active)

S=C(Sc1ccc(Cl)cc1)Sc1ccc(Cl)cc1
EC50 (BJ [2]): 3.4 µM (inconclusive) | EC50 (BJ [3]): > 150 µM (inconclusive) | EC50 (BJ [4]): 13.1 µM (inconclusive) | EC50 [5]: 9.25 µM (active)

CCOC(=O)c1sc(NC(=O)c2ccccc2OC)nc1C
EC50 (BJ [2]): 22.3 µM (active) | EC50 (BJ [3]): 22.8 µM (active) | EC50 (BJ [4]): > 150 µM (inconclusive) | EC50 [5]: 14.7 µM (active)

Cc1cccc2c1NC(=O)/C2=C\C(=O)c1cccs1
AC50 [7]: 5.12 µM (active)

Cc1cccc(NC(=S)N/N=C/c2c[nH]c3ccccc23)c1
AC50 [7]: 0.704 µM (active)

Cc1ccc(-c2nnc(SCC(=O)N/N=C/c3c(C)nn(-c4ccccc4)c3C)n2-c2ccc(C)cc2)cc1
CC50 [8]: 20.5 µM (active)

COc1ccc(/C=N/NC(=O)c2cc(-c3cccn3C)[nH]n2)cc1OC
EC50 [6]: > 195 µM (not active)

COc1cc(/C=N\Nc2nc3ccccc3[nH]2)cc(OC)c1OC
AC50 [1]: 0.997 µM (active) | AC50 (Cytochrome P450 2C19): 17.8 µM (inconclusive) | AC50 (Cytochrome P450 2D6): 17.8 µM (inconclusive)

Cc1ccc(-c2nnc(SCC(=O)N/N=C/c3c(C)nn(-c4ccccc4)c3C)n2-c2ccccc2)cc1
CC50 [8]: 17.2 µM (active)

Clc1cccc(Nc2nc(-c3ccncc3)cs2)c1
EC50 [9]: 0.714 µM (active) | EC50 [10]: 5.87 µM (active) | AC50 [7]: 3.5 µM (active)

COc1ccc(Nc2cc(C)c3ccc(O)cc3n2)cc1
CC50 [8]: 11.7 µM (active)

O=C(O)Cc1cc(I)c(Oc2ccc(O)c(I)c2)c(I)c1 [TIRATRICOL]
CC50 [8]: 13 µM (active) | AC50 (Cytochrome P450 1A2): 12.6 µM (inconclusive)
